Where two headings read alike, the source gives them in different places.
Target: T1, recombinant murine Aurora A enzyme (Mus musculus, UniProt P97477)
T1 construct: hexahistidine (His6) (N); made in house; host or cells: insect cells, baculovirus (Bac-to-Bac, Invitrogen)
Assay: Aurora A DELFIA Kinase Assay
Assay type: biochemical
Text: Recombinant mouse Aurora A with an amino-terminus hexahistidine tag (His-Aurora A) was expressed using a standard baculovirus vector and insect cell expression system (Bac-to-Bac®, Invitrogen).
Soluble, recombinant mouse Aurora A was purified from insect cells using Ni-NTA agarose (Qiagen) as described by the manufacturer and further purified over an S75 size exclusion column (Amersham Pharmacia Biotech).
Aurora A DELFIA® Kinase Assay
The enzymatic reaction mixture, with and without Aurora inhibitors, was incubated for 15 minutes at room temperature before termination with 100 μL of stop buffer (1% BSA, 0.05% Surfact-AMPS-20, and 100 mM EDTA). A total of 100 μL of the enzyme reaction mixture was transferred to wells of a Neutravidin-coated 96-well plate (Pierce) and incubated at room temperature for 30 minutes. The wells were washed with wash buffer (25 mM Tris, 150 mM sodium chloride, and 0.1% Tween 20) and incubated for 1 hour with 100 μL of antibody reaction mixture containing 1% BSA, 0.05% Surfact-AMPS-20, anti-phospho-PKA rabbit polyclonal antibody (1:2000, New England Biolabs), and europium labeled anti-rabbit IgG (1:2000, Perkin Elmer). The wells were washed and then the bound europium was liberated using 100 μL of Enhancement Solution (Perkin Elmer). Quantification of europium was done using a Wallac™ EnVision (Perkin Elmer).

[1] = mouse Aurora A, 250 μM ATP, threshold less than or equal to 100 nM, read-out: IC50

T1 sequence (P97477 whole entry): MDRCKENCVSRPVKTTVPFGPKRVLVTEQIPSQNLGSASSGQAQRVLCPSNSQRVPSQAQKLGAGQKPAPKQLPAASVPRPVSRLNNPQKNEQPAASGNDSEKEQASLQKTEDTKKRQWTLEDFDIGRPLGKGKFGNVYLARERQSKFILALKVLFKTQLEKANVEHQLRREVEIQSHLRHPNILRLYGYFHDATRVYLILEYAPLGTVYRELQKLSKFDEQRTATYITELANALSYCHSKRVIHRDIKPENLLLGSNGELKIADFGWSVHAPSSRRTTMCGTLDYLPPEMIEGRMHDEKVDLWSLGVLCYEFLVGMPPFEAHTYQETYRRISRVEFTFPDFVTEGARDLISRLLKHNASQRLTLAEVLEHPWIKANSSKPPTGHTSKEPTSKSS

| SMILES | IC50 [1] [nM] | IC50 [nM] |
| --- | --- | --- |
| NCC#Cc1cccc(Nc2ncc3c(n2)-c2ccc(Cl)cc2C(c2c(F)cccc2F)=NC3)c1 [Compound I-338, N-[3-(3-aminoprop-1-yn-1-yl)phenyl]-9-chloro-7-(2,6-difluorophenyl)-5H-pyrimido[5,4-d][2]benzazepin-2-amine] | ≤ 100 | – |
| NC(=O)c1ccc(Nc2ncc3c(n2)-c2ccc(Cl)cc2C(c2ccccc2Cl)=NC3)cc1 [Compound I-63, 4-[9-Chloro-7-(2-chloro-phenyl)-5H-benzo[c]pyrimido[4,5-e]azepin-2-ylamino]-benzamide] | ≤ 100 | – |
| CC1N=C(c2c(F)cccc2F)c2cc(Cl)ccc2-c2nc(Nc3ccc(C(=O)O)cc3)ncc21 (stereo not shown) [Compound I-371, 4-{[9-chloro-7-(2,6-difluorophenyl)-5-methyl-5H-pyrimido[5,4-d][2]benzazepin-2-yl]amino}benzoic acid] | – | ≤ 100 |
| CNC1CCCN(C(=O)c2ccc(Nc3ncc4c(n3)-c3ccc(Cl)cc3C(c3c(F)cccc3Cl)=NC4)cc2)C1 (stereo not shown) [Compound I-326, 9-chloro-7-(2-chloro-6-fluorophenyl)-N-(4-{[3-(methylamino)piperidin-1-yl]carbonyl}phenyl)-5H-pyrimido[5,4-d][2]benzazepin-2-amine] | ≤ 100 | – |
| OC1CN=C(c2ccc(Nc3ncc4c(n3)-c3ccc(Cl)cc3C(c3c(F)cccc3F)=NC4)cc2)NC1 (stereo not shown) [Compound I-285, 2-(4-{[9-chloro-7-(2,6-difluorophenyl)-5H-pyrimido[5,4-d][2]benzazepin-2-yl]amino}phenyl)-1,4,5,6-tetrahydropyrimidin-5-ol] | ≤ 100 | – |
| CC1CN(C(=O)c2ccc(Nc3ncc4c(n3)-c3ccc(Cl)cc3C(c3c(F)cccc3Cl)=NC4)cc2)CCN1 (stereo not shown) [Compound I-323, 9-chloro-7-(2-chloro-6-fluorophenyl)-N-{4-[(3-methylpiperazin-1-yl)carbonyl]phenyl}-5H-pyrimido[5,4-d][2]benzazepin-2-amine] | ≤ 100 | – |
| O=C(O)C1CCCN1C(=O)c1ccc(Nc2ncc3c(n2)-c2ccc(Cl)cc2C(c2ccccc2F)=NC3)cc1 (stereo not shown) [Compound I-112, 1-{4-[9-Chloro-7-(2-fluoro-phenyl)-5H-benzo[c]pyrimido[4,5-e]azepin-2-ylamino]-benzoyl}-pyrrolidine-2-carboxylic acid] | ≤ 100 | – |
| O=C(O)c1ccc(Nc2ncc3c(n2)-c2ccc(C(=O)O)cc2C(c2ccccc2F)=NC3)cc1 [Compound I-249, 2-[(4-carboxyphenyl)amino]-7-(2-fluorophenyl)-5H-pyrimido[5,4-d][2]benzazepine-9-carboxylic acid] | ≤ 100 | – |
| CN(C)CCNC(=O)c1ccc(Nc2ncc3c(n2)-c2ccc(Cl)cc2C(c2ccccc2F)=NC3)cc1 [Compound I-4, 4-[9-Chloro-7-(2-fluoro-phenyl)-5H-benzo[c]pyrimido[4,5-e]azepin-2-ylamino]-N-(2-dimethylamino-ethyl)-benzamide] | ≤ 100 | – |
| O=C(O)c1ccc(Nc2ncc3c(n2)-c2ccc(Cl)cc2C(c2ccccc2Cl)=NC3)cc1O [Compound I-86, 4-[9-Chloro-7-(2-chloro-phenyl)-5H-benzo[c]pyrimido[4,5-e]azepin-2-ylamino]-2-hydroxy-benzoic acid] | ≤ 100 | – |
| NC1CCN(C(=O)c2ccc(Nc3ncc4c(n3)-c3ccc(Cl)cc3C(c3ccccc3C(F)(F)F)=NC4)cc2)CC1 [Compound I-287, N-{4[(4-aminopiperidin-1-yl)carbonyl]phenyl}-9-chloro-7-[2-(trifluoromethyl)phenyl]-5H-pyrimido[5,4-d][2]benzazepin-2-amine] | ≤ 100 | – |
| O=C(c1ccc(Nc2ncc3c(n2)-c2ccc(Cl)cc2C(c2ccccc2F)=NC3)cc1Cl)N1CCN(CCN2CCCC2)CC1 [Compound I-213, 9-chloro-N-(3-chloro-4-{[4-(2-pyrrolidin-1-ylethyl)piperazin-1-yl]carbonyl}phenyl)-7-(2-fluorophenyl)-5H-pyrimido[5,4-d][2]benzazepin-2-amine] | ≤ 100 | – |
| Nc1ccc(Nc2ncc3c(n2)-c2ccc(Cl)cc2C(c2c(F)cccc2F)=NC3)cc1 [Compound I-217, N-[9-chloro-7-(2,6-difluorophenyl)-5H-pyrimido[5,4-d][2]benzazepin-2-yl]benzene-1,4-diamine] | ≤ 100 | – |
| CNC(=O)C1CN(C(=O)c2ccc(Nc3ncc4c(n3)-c3ccc(Cl)cc3C(c3c(F)cccc3F)=NC4)cc2)CCN1 (stereo not shown) [Compound I-310, 4-(4-{[9-chloro-7-(2,6-difluorophenyl)-5H-pyrimido[5,4-d][2]benzazepin-2-yl]amino}benzoyl)-N-methylpiperazine-2-carboxamide] | ≤ 100 | – |
| CNC(=O)c1ccc2c(c1)C(c1c(F)cccc1F)=NCc1cnc(Nc3ccc(C(=O)N4CC(C)NC(C)C4)cc3)nc1-2 (stereo not shown) [Compound I-376, 7-(2,6-difluorophenyl)-2-({4-[(3,5-dimethylpiperazin-1-yl)carbonyl]phenyl}amino)-N-methyl-5H-pyrimido[5,4-d][2]benzazepine-9-carboxamide] | ≤ 100 | – |
| CNC1CCN(C(=O)c2csc(Nc3ncc4c(n3)-c3ccc(Cl)cc3C(c3c(F)cccc3F)=NC4)n2)C1 (stereo not shown) [Compound I-367, 9-chloro-7-(2,6-difluorophenyl)-N-(4-{[3-(methylamino)pyrrolidin-1-yl]carbonyl}-1,3-thiazol-2-yl)-5H-pyrimido[5,4-d][2]benzazepin-2-amine] | ≤ 100 | – |
| CNC1CCN(C(=N)c2ccc(Nc3ncc4c(n3)-c3ccc(Cl)cc3C(c3c(F)cccc3F)=NC4)cc2)C1 (stereo not shown) [Compound I-268, 9-chloro-7-(2,6-difluorophenyl)-N-(4-{imino[3-(methylamino)pyrrolidin-1-yl]methyl}phenyl)-5H-pyrimido[5,4-d][2]benzazepin-2-amine] | ≤ 100 | – |
| NC1CCN(C(=O)c2ccc(Nc3ncc4c(n3)-c3ccc(Cl)cc3C(c3ccccc3F)=NC4)cc2)CC1 [Compound I-17, (4-Amino-piperidin-1-yl)-{4-[9-chloro-7-(2-fluoro-phenyl)-5H-benzo[c]pyrimido[4,5-e]azepin-2-ylamino]-phenyl}-methanone] | ≤ 100 | – |
| COc1ccccc1C1=NCc2cnc(Nc3ccc(C(=O)N4CCN(C)CC4)cc3)nc2-c2ccc(Cl)cc21 [Compound I-12, {4-[9-Chloro-7-(2-methoxy-phenyl)-5H-benzo[c]pyrimido[4,5-e]azepin-2-ylamino]-phenyl}-(4-methyl-piperazin-1-yl)-methanone] | ≤ 100 | – |
| O=C(O)c1ccc(Nc2ncc3c(n2)-c2ccc(Cl)cc2C(c2ccccc2Cl)=NC3)cc1 [Compound I-53, 4-[9-Chloro-7-(2-chloro-phenyl)-5H-benzo[c]pyrimido[4,5-e]azepin-2-ylamino]-benzoic acid] | ≤ 100 | – |
| CN(C)C1CN(C(=O)c2cccc(Nc3ncc4c(n3)-c3ccc(Cl)cc3C(c3c(F)cccc3F)=NC4)c2)C1 [Compound I-204, 9-chloro-7-(2,6-difluorophenyl)-N-(3-{[3-(dimethylamino)azetidin-1-yl]carbonyl}phenyl)-5H-pyrimido[5,4-d][2]benzazepin-2-amine] | ≤ 100 | – |
| O=C(O)c1ccc(Nc2ncc3c(n2)-c2ccc(Cl)cc2C(c2c(F)cccc2Cl)=NC3)cc1 [Compound I-174, 4-{[9-Chloro-7-(2-chloro-6-fluorophenyl)-5H-pyrimido-[5,4-d][2]benzazepin-2-yl]amino}benzoic acid] | ≤ 100 | – |

Reference: patent US9102678B2, “Compounds and methods for inhibiting mitotic progression” (Millennium Pharmaceuticals, Inc., priority 2004, dated 2015)
